The values that follow come from article PMC12123601, “Light-Induced, Lysine-Targeting Irreversible Covalent Inhibition of the Human Oxygen Sensing Hydroxylase Factor Inhibiting HIF (FIH)” (Journal of the American Chemical Society, 2025).

The assay concerns 3T3-L1-derived adipocytes. Briefly: Lipid homeostasis in 3T3-L1-derived adipocytes (TG level, Oil Red O staining). Format: cell-based. How it is done: 5 NBA-ZG-2991 sustainably engages with FIH and regulates the expression of FIH-dependent HIF target gene EGLN3 in Hep3B cells. (A) The CETSA assay was carried out with Hep3B cells grown in the presence of NBA-ZG-2291 (50 μM) for 12–48 h after 30 min of light activation (365 nm, 16 W). The intensity of the bands for grayscale analysis was referenced to the starting temperature (37 °C). α-Actinin was the sample loading control. n = 2; mean ± SD. […] (E) Correlation heatmap of the NBA-ZG-2291-treated group and the siFIH group by RNA-sequencing analysis. […] The relative fold change with respect to DMSO treated sample is shown (with normalization to HPRT gene levels). Mean ± SEM; n = 3. (G) TG level of NBA-ZG-2291-treated 3T3-L1-derived adipocytes. Mean ± SEM; n = 3. (H) Representative Oil Red O-stained images of the control, ZG-2291-treated, and NBA-ZG-2291-treated 3T3-L1-derived adipocytes. Scale Bar, 30 μm. P values were analyzed by two-way ANOVA comparing with the vehicle/control group (*, P < 0.05; **, P < 0.01; ***, P < 0.001, ****, P < 0.0001). See Methods (Quantitative PCR Analysis of Gene Expression) for assay details. […]

In the case of `O=C(O)CNC(=O)c1ncc(-c2cc(-c3ccc(CO)c([N+](=O)[O-])c3)no2)cc1O` [NBA-ZG-2291], the “Cellular triglyceride (TG) levels” value is recorded as “significantly improved cellular triglyceride levels”. Also, the “Lipid droplet accumulation (Oil Red O staining)” value (compared with control cells) is recorded as “reduced lipid droplet accumulation”.
